Patent US12467928B2, “N-terminal modifier agents and binders for treating and analyzing peptides” (Encodia, Inc., priority 2023, dated 2025)
Peptide text beside a SMILES is read from it. * marks the point of attachment. Benzoyl(4-SO2NH2) = NS(=O)(=O)c1ccc(C(=O)*)cc1

Experiments:
wild-type hCAII protein = wild-type hCAII protein (Homo sapiens, UniProt P00918); experiment: colorimetric IC50 assay of NTMs and NTM-AAEIR peptides; format: biochemical; details: for Fold Enhancement (NTM IC50) / Fold Enhancement (NTM-AAEIR IC50): relative to NTM M64; for Fold Enhancement (NTM-AAEIR IC50): NTM on AAEIR
Protocol: The colorimetric assay used 300 nM of wild-type carbonic anhydrase incubated in 45 μL of 50 mM MOPS (pH 7.5), 33 mM Na2SO4, and 1 mM EDTA aliquoted into a 96-well, clear, flat-bottom plate. To each column of the plate, a 1/10 dilution series from 1 mM to 0.1 nM of each NTM was added and incubated at 25° C. for 10 minutes to reach binding equilibrium. […] The initial rate of hydrolysis was observed over the first 60 seconds. The slopes versus the concentration of NTM were put into a non-linear regression equation to determine the IC50 of the NTM to the carbonic anhydrase.

[1] = molecular target: human carbonic anhydrase II (hCAII) (Homo sapiens, UniProt P00918); experiment: hCAII functional assay (pNP-OAc hydrolysis) with SABA-modified peptides; format: biochemical
Protocol: A functional assay for hCAII enzyme was set up. Carbonic anhydrase catalyzes the hydrolysis of 4-nitrophenyl acetate (4-NPA) to nitrophenol, which can be monitored by absorbance at 400 nm. The enzymatic carbonic anhydrase assay generally includes 0.2-1.0 μM enzyme and 10-500 μM 4-NPA in 20-200 μL in assay buffer. […] Metal chelating agents (EDTA or EGTA), salt (NaCl, sulfate), detergent (Tween or Triton), and organic additives (acetonitrile, DMSO) may be employed to facilitate enzyme stability and reagent solubility. For the assay, 1 μM human carbonic anhydrase II, 50 mM MOPS (pH 7.6), 33 mM disodium sulfate, and 1 mM EDTA. To generate NTM-modified peptides, azide-derivatized peptides (via azide-PEG-amine and carbodiimide coupling to C-terminus of peptide) were conjugated to DBCO-coupled beads. […] To evaluate P1 dependence of the binding reaction, multiple P1 residues has been tested.

[2] = molecular target: biotinylated peptides M64-P1-P2-ΔK-(PEG9)(PEG9)-K(Biotin); experiment: bio-layer interferometry (BLI) of engineered binders; format: binding; details: M64 peptide, 22° C.
Protocol: Bio-layer interferometry (BLI) is an optical analytical and label-free method to directly measure kinetics between two biomolecules. In this technology, one biomolecule is immobilized on a surface in the form of a small tip, this tip is then dipped in a microplate containing the second biomolecule of interest. White light is directed down the tip to the tip surface where the binding is measured as a shift in wavelength that is caused as a result of the interference between incident and reflected light. More specifically, there are two surfaces at the tip, a reference layer and the experiment layer, the latter is where the biomolecules immobilize and bind. As the distance between these two layers increases due to biomolecules binding and immobilizing, the shift between incident and reflected wavelengths increases as caused by the light waves interfering at the two layers. Therefore, the size and the number of biomolecules that bind onto the surface is proportional to the shift measured. This shift is plotted against time to give a sensogram from which kon, koff and ultimately KD can be calculated.
All binding experiments were carried out on an 8-channel Gator Prime (Gator Bio) instrument. To measure the affinity of each binder-peptide pair, biotinylated peptides were immobilized on Streptavidin coated biosensor tips (Gator Bio), which were dipped in six binder concentrations and two controls. All binding assays were performed at 22° C. in 96 well polypropylene plates (Gator Bio) and carried out in triplicates with a well volume of 200 uL. Streptavidin coated biosensors were hydrated in the baseline buffer for 10 mins before each assay. All binding experiments used biotinylated peptides with the following sequence construct, M64-P1-P2-ΔK-(PEG9)(PEG9)-K(Biotin) and all peptides were diluted in the baseline buffer. Binders having sequences set forth in SEQ ID NO: 75-SEQ ID NO: 82 were tested. The binders originated from three different metalloenzyme scaffolds and were engineered according to the methods disclosed in Examples 4-6. […] All binders were serially diluted using the baseline buffer either by 2- or 3-fold. Baseline buffer consisted of 50 mM MOPS pH 7.5, 33 mM NaSO4, 1 mM EDTA and 0.1% Tween-20. The following protocol was used for each binding assay under shaker speed of 1000 rpm, which generated the best quality binding with minimal sensor to sensor variation and baseline drift (Table 14).
Between each binding assay, if biosensors were used more than once, the following protocol was used to regenerate the biosensor for subsequent binding assays (Table 15). Regeneration buffer consisted of […] and 10 mM Glycine pH 2.0.
Analysis of binding curves. […] Binding curves were aligned to the association step and subtracted using the reference curve. Each set of processed curves were then fit locally and inspected. The residual plot, R2 and Chi2 were examined to be <0.1 nm, […] and <3 nm respectively. […] Next, the qualifying curves were filled globally and the kinetic parameters kobs, kon, koff and KD were calculated along with their errors. The errors were inspected to be less than […] of its calculated value. Finally, the theoretical shift at equilibrium from the qualifying curves were filled on a steady state plot, and the KD and Rmax (theoretical maximum binding capacity in nm) were calculated from that curve. The kinetic parameters of exemplary generated binders (having sequences set forth in SEQ ID NO: 75-SEQ ID NO: 82) with their respective targets (indicated as P1 residue of immobilized peptides) are shown in Table 16.

[3] = 1 μM hCAII, 500 μM pNP-OAc, 10 minutes at 37° C., pNP release over 180 s

Molecule: Nc1cc(S(N)(=O)=O)ccc1C(=O)O [2-NH2, 2-Amino-4-sulfamoylbenzoic acid]
- Fold Enhancement (NTM IC50) (wild-type hCAII protein): 0.3

Molecule: C[C@H](NC(=O)c1ccc(S(N)(=O)=O)cc1)C(=O)N[C@@H](C)C(=O)N[C@@H](C)C(=O)N[C@@H](C)C(=O)N[C@@H](CCC(=O)O)C(N)=O [(SAB)AAAAE] ({Benzoyl(4-SO2NH2)}-AAAAE-NH2)
- IC50 ([1]; SABA-P1-P2 groups): 48 nM

Molecule: C[C@H](NC(=O)c1ccc(S(N)(=O)=O)cc1)C(=O)N[C@@H](Cc1ccccc1)C(=O)N[C@@H](C)C(=O)N[C@@H](C)C(=O)N[C@@H](CCC(=O)O)C(N)=O [(SAB)AFAAE] ({Benzoyl(4-SO2NH2)}-AFAAE-NH2)
- IC50 [1, 3]: 183 nM
- IC50 ([1]; SABA-P1-P2 groups): 183 nM

Molecule: C[C@H](NC(=O)[C@H](C)NC(=O)[C@H](Cc1ccccc1)NC(=O)c1ccc(S(N)(=O)=O)cc1)C(=O)N[C@@H](C)C(=O)N[C@@H](CCC(=O)O)C(N)=O [(SAB)FAAAE] ({Benzoyl(4-SO2NH2)}-FAAAE-NH2)
- IC50 [1, 3]: 45 nM
- IC50 ([1]; SABA-P1-P2 groups): 45 nM

Molecule: NS(=O)(=O)c1ccc(C(=O)O)cn1 [M65, 6-Sulfamoylpyridine-3-carboxylic acid]
- Fold Enhancement (NTM IC50) (wild-type hCAII protein): 2.2
- Fold Enhancement (NTM-AAEIR IC50) (wild-type hCAII protein): 0.3

Molecule: NS(=O)(=O)c1ccc(C(=O)O)nc1 [M66]
- IC50 (wild-type hCAII protein; free NTM, 300 nM wild-type carbonic anhydrase, 1 mM pNPA, 25° C.): 992 nM
- Fold Enhancement (NTM IC50) (wild-type hCAII protein): 0.5

Molecule: NS(=O)(=O)c1ccc(C(=O)O)c([N+](=O)[O-])c1 [M67, 2Nitro-4-sulfamoylbenzoic acid]
- Fold Enhancement (NTM IC50) (wild-type hCAII protein): 3.8
- Fold Enhancement (NTM-AAEIR IC50) (wild-type hCAII protein): 2.0

Molecule: COc1cc(S(N)(=O)=O)ccc1C(=O)O [M73, 2-Methoxy-4-sulfarnoylbenzoic acid]
- Fold Enhancement (NTM IC50) (wild-type hCAII protein): 0.0

Molecule: Cc1cc(S(N)(=O)=O)ccc1C(=O)O [M74, 2-methyl-4 sulfamoylbenzoic acid]
- Fold Enhancement (NTM IC50) (wild-type hCAII protein): 0.2

Molecule: NS(=O)(=O)c1ccc(C(=O)O)c(F)c1 [M75, 2-Fluoro-4-sulfamoylbenzoic acid]
- Fold Enhancement (NTM IC50) (wild-type hCAII protein): 2.1
- Fold Enhancement (NTM-AAEIR IC50) (wild-type hCAII protein): 2.2

Molecule: NS(=O)(=O)c1ccc(C(=O)O)c(Cl)c1 [M76, 2-Chloro-4-sulfamoylbenzoic acid]
- Fold Enhancement (NTM IC50) (wild-type hCAII protein): 2.6
- Fold Enhancement (NTM-AAEIR IC50) (wild-type hCAII protein): 1.9

Molecule: NS(=O)(=O)c1ccc(C(=O)O)cc1F [M88, 3-Fluoro-4-sulfamoylbenzoic acid]
- Fold Enhancement (NTM IC50) (wild-type hCAII protein): 4.3
- Fold Enhancement (NTM-AAEIR IC50) (wild-type hCAII protein): 1.6

B1: 75 (protein)
chain: EWGYASHNGPDHWHELFPNAKGENQSPIELHTKDIRHDPSLQPWSVSYDGGSAKTILNNGKTLGVVFDDTYDRSMLRGGPLPGPYRLREFHLHWGSSDDHGSEHTVDGVKYAAELHLLHWNPKYNTFKEALKQRDGLAVIGIFLKIGHENGEFQIFLDALDKIKTKGKEAPFTKFDPSSLFPASRDYWTYQGSMTIPPLMEAVVWLLLKEPMTVSSDQMAKLRSLLSSAENEPPVPLVSNWRPPQPINNRVVRASFK
modifications: Synthetic binder, S279_0004
- Kd ([2]; P1 = T): 488 nM
- koff ([2]; P1 = T): 0.0111 s⁻¹
- kon ([2]; P1 = T): 23300 M⁻¹ s⁻¹
- Kd ([2]; P1 = V): 20 nM
- koff ([2]; P1 = V): 0.000473 s⁻¹
- kon ([2]; P1 = V): 23700 M⁻¹ s⁻¹
